For 1 compound, half-life results are on record in paper PMC11403612, “Preparation and Preclinical Characterization of a Simple Ester for Dual Exogenous Supply of Lactate and Beta-hydroxybutyrate” (Journal of Agricultural and Food Chemistry, 2024).

In general, half-life refers to the time in which the quantity being followed falls by half.

This data set can be described thus: Stability of LaKe in plasma, human. The format is in vitro ADME. Particulars: thawed); human plasma (frozen). On the procedure:
The in vitro stability of LaKe was evaluated following incubation in simulated gastric fluid (SGF), simulated intestinal fluid (SIF), fresh and frozen plasma (rats and humans, respectively), and the presence of hepatocytes (rats and humans) and liver microsomes (rats and humans). At the chosen time points, the mixtures were analyzed by LC-MS/MS to quantify the remaining LaKe and all assays included at least one control compound with known pharmacokinetic properties. […]
centrifuged at 4000 rpm, 4℃ for 20 min. 60 μL of supernatant was mixed with 180 μL of purified water for subsequent LC/MS/MS analysis.
LC-MS/MS Condition: ACQUITY UPLC BEH C18 1.7um 2.1 * 50mm Column (Part No.186002350). Mobile phase: A: 0.1% Formic Acid in Water; B: 0.1% Formic Acid in ACN.
Stability of LaKe in simulated intestinal fluid (SIF)
Preparation of SIF-solution: 0.136 g KH2PO4 and 0.064 g pancreatin was dissolved H2O to a total volume of solution 20 mL. The pH of the test solution was adjusted to 6.80 ± 0.05.
Procedure: 2 μL of a 10mg/ml working solution of LaKe in DMSO was spiked into 96-deep-well plates corresponding to timepoints T0, T60, T120, T360 and T1440. Experiments were performed in duplicate. 198 μL of SIF solution was then transferred to the individual wells (except T0) to reach 0.1mg/ml as the final test concentration for each time point (60, 120, 360, 1440 minutes). […]

In turn, `CC(O)CCOC(=O)C(C)O` (stereo not shown) [LaKe, 3-hydroxybutyl 2-hydroxypropanoate] showed a half-life at 2 µM of less than 30 min.
